# According to ChEMBL document CHEMBL1153979, “Inhibition of carbonic anhydrase isozymes with benzene sulfonamides incorporating thio, sulfinyl and sulfonyl glycoside moieties” (Bioorg Med Chem Lett, 2009):
# Target: Carbonic anhydrase 9 (Homo sapiens, UniProt Q16790)
row,Compound,Ki [nM]
1,NS(=O)(=O)c1ccc(-n2cc(CS[C@@H]3O[C@H](CO)[C@@H](O)[C@H](O)[C@H]3O)nn2)cc1,257
2,NS(=O)(=O)c1ccc(-n2cc(C[S+]([O-])[C@@H]3O[C@H](CO)[C@H](O)[C@H](O)[C@H]3O)nn2)cc1 (stereo not given in full),8
3,CC(=O)OC[C@H]1O[C@@H](S(=O)(=O)Cc2cn(-c3ccc(S(N)(=O)=O)cc3)nn2)[C@H](OC(C)=O)[C@@H](OC(C)=O)[C@@H]1OC(C)=O,9.3
4,CC(=O)OC[C@H]1O[C@@H](SCc2cn(-c3ccc(S(N)(=O)=O)cc3)nn2)[C@H](OC(C)=O)[C@@H](OC(C)=O)[C@H]1OC(C)=O,8.6
5,CC(=O)OC[C@H]1O[C@@H](S(=O)(=O)Cc2cn(-c3ccc(S(N)(=O)=O)cc3)nn2)[C@H](OC(C)=O)[C@@H](OC(C)=O)[C@H]1OC(C)=O,7.5
6,NS(=O)(=O)c1ccc(-n2cc(CS(=O)(=O)[C@@H]3O[C@H](CO)[C@H](O)[C@H](O)[C@H]3O)nn2)cc1,8.1
7,NS(=O)(=O)c1ccc(-n2cc(CS(=O)(=O)[C@@H]3O[C@H](CO)[C@@H](O)[C@H](O)[C@H]3O)nn2)cc1,9.5
8,NS(=O)(=O)c1ccc(-n2cc(CS[C@@H]3O[C@H](CO)[C@H](O)[C@H](O)[C@H]3O)nn2)cc1,6.1
9,CC(=O)OC[C@H]1O[C@@H](SCc2cn(-c3ccc(S(N)(=O)=O)cc3)nn2)[C@H](OC(C)=O)[C@@H](OC(C)=O)[C@@H]1OC(C)=O,8.6
10,NS(=O)(=O)c1ccc(-n2cc(C[S+]([O-])[C@@H]3O[C@H](CO)[C@@H](O)[C@H](O)[C@H]3O)nn2)cc1 (stereo not given in full),9.8
